Drawing on the Deep4Chem optical property database, this text covers fluorescence lifetime for 46 compounds.

SMILES strings stand for the structures.

The data set can be described thus: solvent given as SMILES.
Setting [1] is: in c1cc(-n2c3ccccc3c3ccccc32)cc(-n2c3ccccc3c3ccccc32)c1.

Where the note is “in c1ccc2c(c1)c1ccccc1n2P1(n2c3ccccc3c3ccccc32)=NP(n2c3ccccc3c3ccccc32)(n2c3ccccc3c3ccccc32)=NP(n2c3ccccc3c3ccccc32)(n2c3ccccc3c3ccccc32)=N1”, `N#Cc1cc(-n2c3ccccc3c3ccccc32)c(C#N)cc1-n1c2ccccc2c2ccccc21` returned a fluorescence lifetime of 34 ns.
In the case of `C(=C\c1ccnc2ccccc12)/c1c2ccccc2cc2ccccc12`, the fluorescence lifetime reads like this: (in CC1CCCCC1) 2.6 ns; (in CC#N) 0.088 ns.
On to `Fc1cc(-c2nc(-c3ccccc3)nc(-c3ccccc3)n2)ccc1-n1c2ccccc2c2c3c(ccc21)C1(c2ccccc2-c2ccccc21)c1ccccc1-3`, for which the fluorescence lifetime (in O=P(c1ccccc1)(c1ccccc1)c1ccccc1Oc1ccccc1P(=O)(c1ccccc1)c1ccccc1) came to 8.3 ns.
With `c1cc2ccc3ccc4cc3c2cc1CCCCCCc1ccc2ccc3ccc-4cc3c2c1`, the fluorescence lifetime (in Cc1ccccc1) turned out to be 8.7 ns.
For `N#Cc1cnc(-c2c3ccccc3c(-c3ncc(C#N)cn3)c3ccccc23)nc1`, the fluorescence lifetime was 2.5 ns (in CCO) and 5.6 ns (in ClCCl).
For the setting “in Cc1ccccc1”, `N#Cc1cc(C#N)cc(-n2c3ccccc3c3cc(-c4ccc5c(c4)c4ccccc4n5-c4cc(C#N)cc(C#N)c4)ccc32)c1` showed a fluorescence lifetime of 24 ns.
Where the note is “in ClCCl”, `COCCOCCOCCOCC(COCCOCCOCCOC)Oc1cc(/C=C/c2ccc(C=C(C#N)C#N)cc2)c(OC(COCCOCCOCCOC)COCCOCCOCCOC)cc1/C=C/c1ccc(C=C(C#N)C#N)cc1` yielded a fluorescence lifetime of 1.7 ns.
For `CN1/C(=C/C=C/C2=[N+](CCCCCC(=O)O)c3ccc(S(=O)(=O)[O-])cc3C2(C)C)C(C)(C)c2cc(S(=O)(=O)[O-])ccc21`, for the setting “in O”, the fluorescence lifetime was determined as 0.3 ns.
Regarding `CCN(CC)c1ccc2c(c1)OC1=CC(N(CC)CC)C=CC1[C+]2c1ccccc1C(=O)O` (stereo unspecified), the fluorescence lifetime (in CC(C)O) worked out at 2.69 ns; the fluorescence lifetime (in CCCCCCCCO) was 3.18 ns; the fluorescence lifetime (in CCCCCCO) was 3.09 ns; the fluorescence lifetime (in CCCCO) turned out to be 2.98 ns; the fluorescence lifetime (in CCCO) came to 2.79 ns; the fluorescence lifetime (in CCO) was found to be 2.45 ns. Further, the fluorescence lifetime was 2.15 ns (in CO), 1.52 ns (in O) and 1.64 ns (in [2H]O[2H]).
`N#Cc1c(-n2c3ccccc3c3cc(Br)ccc32)c(-n2c3ccccc3c3cc(Br)ccc32)c(C#N)c(-n2c3ccccc3c3cc(Br)ccc32)c1-n1c2ccccc2c2cc(Br)ccc21` had a fluorescence lifetime (in Cc1ccccc1) of 0.4 ns.
For the compound `CC(=O)O[B-]1(OC(C)=O)OC(/C=C/c2cccc3ccccc23)=CC(/C=C/c2cccc3ccccc23)=[O+]1`, the fluorescence lifetime is, setting by setting: (in C1CCOC1) 5.75 ns; (in CC#N) 4.5 ns; (in CC(C)=O) 4.67 ns; (in CS(C)=O) 4.24 ns; (in Cc1ccccc1) 5.13 ns; (in ClC(Cl)Cl) 5.73 ns. In addition, where the note is “in ClCCl”, the fluorescence lifetime came to 5.99 ns.
`CCC1=C(C)C2=C(C)c3cccn3[B-](F)(F)[N+]2=C1C`: the fluorescence lifetime was 5.46 ns (in C1CCCCC1); 5.66 ns (in CC(C)=O); 5.73 ns (in CCO); 5.57 ns (in CCOC(C)=O); 5.78 ns (in CO); 6.17 ns (in OCC(F)(F)F).
Take `CN(C)c1ccc2nc(-c3ccc(C(=O)O)cc3)sc2c1`: the fluorescence lifetime (in C1CCCCC1) came out at 2.4 ns and the fluorescence lifetime (in c1ccccc1) turned out to be 2.5 ns.
Take `Nc1ccc(N2C(=O)c3ccc4c5ccc6c7c(ccc(c8ccc(c3c48)C2=O)c75)C(=O)NC6=O)cc1`: the fluorescence lifetime (in CN(C)C=O) turned out to be 2.9 ns.
Turning to `O=C1c2ccccc2-c2cccc(O)c21`, the fluorescence lifetime is, setting by setting: (in C1CCCCC1) 1.24 ns; (in C1COCCO1) 3.38 ns; (in CC#N) 9.67 ns; (in CC(C)O) 5.5 ns; (in CCCCO) 5.22 ns; (in CCCO) 4.82 ns. For the same compound, the fluorescence lifetime is, setting by setting: (in CCO) 4.85 ns; (in CCOC(C)=O) 5.48 ns; (in CCOCC) 2.39 ns; (in CO) 3.61 ns.
With `c1ccc2cc(-n3cnc4ccccc43)ccc2c1`, the fluorescence lifetime by setting is: (in C1CCCCC1) 4.7 ns; (in CCOC(C)=O) 4.1 ns; (in CO) 5.1 ns.
As to `N#Cc1ccc(C2=Cc3cc4ccccc4cc3P2(=O)c2ccccc2)cc1` (stereo unspecified), the fluorescence lifetime (in ClCCl) turned out to be 2.5 ns.
Regarding `COc1ccc2c(c1)C(=O)c1cc(OC)cc(OC)c1-2`, the fluorescence lifetime by setting is: (in C1CCCCC1) 1.3 ns; (in CC#N) 0.6 ns.
Under “in ClCCl”, `F[B-]1(F)OC(C#Cc2ccccc2)=C2CCc3ccccc3C2=[O+]1` showed a fluorescence lifetime of 2.79 ns.
Regarding `CCCCCCCCCC[n+]1cc2ccc3c[n+](CCCCCCCCCC)cc4ccc(c1)c2c34`, the fluorescence lifetime (in CC#N) was found to be 9.5 ns.
Turning to `CN1CCN(c2ccc3c4c(cccc24)C(=O)c2ccccc2-3)CC1`, the fluorescence lifetime reads like this: (in C1CCCCC1) 8.9 ns; (in C1CCOC1) 10 ns; (in C1COCCO1) 10.3 ns; (in CC1COC(=O)O1) 8.04 ns; (in CC#N) 9.53 ns; (in CC(C)=O) 8.45 ns. The fluorescence lifetime by setting is: (in CCCCCCCCO) 5.99 ns; (in CCCCCO) 5.38 ns; (in CCCCO) 5.03 ns; (in CCCO) 4.66 ns; (in CCO) 3.77 ns; (in CCOC(C)=O) 9.8 ns. For the same compound, the fluorescence lifetime came out at 8.27 ns (in CN(C)C=O); 2.93 ns (in CO); 8.5 ns (in CS(C)=O); 9.37 ns (in Cc1ccccc1); 10.4 ns (in ClC(Cl)Cl).
Regarding `O=C(c1ccc(N2c3ccccc3Oc3ccccc32)cc1)c1ccc(N2c3ccccc3Oc3ccccc32)cc1`, the fluorescence lifetime under setting [1] came to 23 ns.
`Nc1ccc2c(-c3ccccc3C(=O)[O-])c3ccc(=[NH2+])cc-3oc2c1` returned a fluorescence lifetime (in CC#N) of 4.03 ns, a fluorescence lifetime (in CCO) of 4 ns, a fluorescence lifetime (in CN(C)C=O) of 3.68 ns and a fluorescence lifetime (in O) of 4.28 ns.
In turn, `CC1=C2c3ccccc3C(c3[nH]c(C)cc3C)=[N+]2[B-](F)(F)n2c(C)cc(C)c21` registered a fluorescence lifetime (in ClCCl) of 7.3 ns.
`O=C1c2ccc3c4c(NC5CCCCC5)cc5c6c(ccc(c7c(NC8CCCCC8)cc(c2c37)C(=O)N1C1CCCCC1)c64)C(=O)N(C1CCCCC1)C5=O`: the fluorescence lifetime (in ClC(Cl)Cl) stood at 1.4 ns.
As to `O=c1c2ccccc2n2c3ccc(-c4ccccc4)cc3c(=O)c3cccc1c32`, the fluorescence lifetime came to 5.5 ns (in c1cc(-c2cccc(-n3c4ccccc4c4ccccc43)c2)cc(-n2c3ccccc3c3ccccc32)c1) and 5.5 ns under setting [1].
Regarding `N#CC(C#N)=Cc1ccc(-c2ccc(N(c3ccccc3)c3ccccc3)cc2)o1`, the fluorescence lifetime (in ClC(Cl)Cl) was 2.73 ns.
Compound `CC(C)c1cc(C(C)C)c(B2c3ccccc3Oc3cc(N4c5ccccc5C(C)(C)c5ccccc54)ccc32)c(C(C)C)c1` showed a fluorescence lifetime (in Cc1ccccc1) of 33 ns.
Turning to `CCN(CC)c1ccc2c(-c3ccc(S(=O)(=O)[O-])cc3S(=O)(=O)[O-])c3ccc(=[N+](CC)CC)cc-3oc2c1`, the fluorescence lifetime reads like this: (in CC#N) 2.46 ns; (in CCO) 2.96 ns; (in CN(C)C=O) 2.84 ns; (in O) 1.49 ns.
Where the note is “in CCCCCC”, `Cc1cc(C)c(B(c2cc3c4c(c(B(c5c(C)cc(C)cc5C)c5c(C)cc(C)cc5C)cc5c4c2CCC5)CCC3)c2c(C)cc(C)cc2C)c(C)c1` returned a fluorescence lifetime of 14.6 ns.
For `COc1cccc(-[c+]2c3ccccc3oc3ccccc32)c1`, the fluorescence lifetime (in CC#N) is 0.028 ns.
On to `COc1ccc(-c2c3ccccc3c(C#Cc3ccccc3)c3ccccc23)cc1`, for which, where the note is “in ClCCl”, the fluorescence lifetime came to 2.8 ns.
`CCn1c2ccccc2c2cc(C#Cc3cc(C#Cc4ccc5c(c4)c4ccccc4n5CC)ncn3)ccc21` displayed a fluorescence lifetime (in C1CCOC1) of 2.32 ns.
With `CN(C)c1ccc(-c2cc(-c3ccc4ccccc4c3)nc(-c3ccccc3)n2)cc1`, the fluorescence lifetime by setting is: (in C1CCCCC1) 2.9 ns; (in CS(C)=O) 1.6 ns; (in ClC(Cl)Cl) 2.4 ns.
As for `CCCCCCN1C(=O)c2cccc3c(-c4ccc(OC)s4)ccc(c23)C1=O`, for the setting “in ClC(Cl)Cl”, the fluorescence lifetime turned out to be 3.88 ns.
Under “in C1CCOC1”, `C(=C\c1cc2ccccc2c2ccccc12)/c1cc2ccccc2c2ccccc12` registered a fluorescence lifetime of 1.72 ns.
With `Cc1cccc(C)c1Nc1ccc(/C=C/c2ccc3ccccc3c2)cc1`, the fluorescence lifetime (in CC#N) came out at 0.2 ns.
In the case of `CCCCCCOc1cc(/C=C/c2cc(OCCCCCC)c(/C=C/c3cc(OCCCCCC)c(C=O)cc3OCCCCCC)cc2OCCCCCC)c(OCCCCCC)cc1C=O`, the fluorescence lifetime (in ClCCl) was 1.77 ns.
The compound `c1ccc(C[n+]2cc3ccc4c[n+](Cc5ccccc5)cc5ccc(c2)c3c45)cc1` displayed a fluorescence lifetime (in CC#N) of 4.3 ns.
Take `c1ccc(N(c2ccccc2)c2ccc(-c3ccc4c(c3)C3(c5cc(-c6ccc(N(c7ccccc7)c7ccccc7)cc6)ccc5-4)c4ccccc4N(c4ccccc4)c4ccccc43)cc2)cc1`: the fluorescence lifetime (in ClCCl) was 1.2 ns.
`CCCCCCCCN1C(=O)c2ccc3c4c(-c5ccc(-n6c7ccccc7c7ccccc76)cc5)cc5c6c(cc(-c7ccc(-n8c9ccccc9c9ccccc98)cc7)c(c7ccc(c2c37)C1=O)c64)C(=O)N(CCCCCCCC)C5=O` had a fluorescence lifetime (in ClC(Cl)Cl) of 3.3 ns.
Where the note is “in C1CCOC1”, `C(=C\c1cc2ccccc2c2ccccc12)/c1c2ccccc2cc2ccccc12` returned a fluorescence lifetime of 4.63 ns.
As for `COc1cc2c3cc(OC)c(OC)cc3c3cc4c(C)cc(=O)oc4cc3c2cc1OC`, the fluorescence lifetime (in ClC(Cl)Cl) amounted to 4.6 ns.
Take `COc1ccc(-c2nc(-c3ccccc3O)c(-c3ccccc3O)n2-c2ccc(C)cc2)cc1`: the fluorescence lifetime is, setting by setting: (in C1CCOC1) 2.51 ns; (in CS(C)=O) 1.6 ns; (in ClC(Cl)Cl) 1.78 ns; (in ClCCl) 2.56 ns.
Consider `O=C1/C(=C2\Sc3ccc(S(=O)(=O)O)cc3C2=O)Sc2ccc(S(=O)(=O)O)cc21`, for which the fluorescence lifetime runs as follows: (in CN(C)C=O) 4.85 ns; (in CO) 0.99 ns; (in CS(C)=O) 0.16 ns; (in O) 0.13 ns.
Where the note is “in Cc1ccccc1”, `N#Cc1c(-n2c3ccccc3c3ccccc32)cc(N2c3ccccc3C(c3ccccc3)(c3ccccc3)c3ccccc32)cc1-n1c2ccccc2c2ccccc21` gave a fluorescence lifetime of 18.4 ns.
